The experiment addresses T1, 5-HT2A receptor (Homo sapiens, UniProt P28223).
T1 construct: expressed in transfected cells; host or cells: NIH3T3 cells, pSI expression vector
The experiment can be described thus: R-SAT functional receptor assay. In kind it is cell-based. As to conditions: for Emax: 120 h, read-out: 5HT2A % INH.

Setting [1] is: Table 5, read-out: 5HT2A pIC50 (converted).

Where a name gives a salt, the structure may show the parent alone. Read-outs that look alike come from different tables or passages of the source.

T1 sequence (P28223 whole entry): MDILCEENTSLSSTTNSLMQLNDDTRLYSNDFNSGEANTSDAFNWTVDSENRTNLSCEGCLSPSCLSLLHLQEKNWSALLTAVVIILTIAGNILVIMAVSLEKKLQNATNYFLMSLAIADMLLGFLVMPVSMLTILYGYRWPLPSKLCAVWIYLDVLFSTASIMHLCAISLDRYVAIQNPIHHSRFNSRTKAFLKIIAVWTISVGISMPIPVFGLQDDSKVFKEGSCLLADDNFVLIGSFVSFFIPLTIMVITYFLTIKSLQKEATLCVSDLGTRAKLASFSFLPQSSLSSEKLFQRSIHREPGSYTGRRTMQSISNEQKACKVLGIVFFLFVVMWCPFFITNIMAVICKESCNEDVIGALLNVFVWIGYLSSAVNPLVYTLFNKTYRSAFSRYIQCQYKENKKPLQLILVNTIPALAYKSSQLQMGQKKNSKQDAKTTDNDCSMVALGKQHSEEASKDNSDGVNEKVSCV

Regarding `CC(C)COc1ccc(CC(=O)N(Cc2ccc(F)cc2)C2CCN(CCCN3CC(C)OC(C)C3)CC2)cc1` (centres unmarked) [Example 103NLS69-A, N-{1-[3-(2,6-Dimethylmorpholin-4-yl)propyl]piperidin-4-yl}-N-(4-fluorobenzyl)-2-(4-isobutoxyphenyl)acetamide, dioxalate], the Emax is 96%. For the same compound, under setting [1], the IC50 is 2 nM.

Take `CCCOc1ccc(CC(=O)N(CCc2ccc(F)cc2)C2CCN(CCCN3C(=O)OC[C@@H]3C(C)C)CC2)cc1` [Example 117NLS03-B, N-[2-(4-Fluorophenyl)ethyl]-N-{1-[3-(4-(S)-isopropyl-2-oxo-oxazolidin-3-yl)propyl]piperidin-4-yl}-2-(4-propoxyphenyl)acetamide, oxalate]: the Emax is 85%. This compound had an IC50 (5HT2A pIC50, Table 5) of 3.98 nM.

For `CC(C)COc1ccc(CNC(=O)N(Cc2ccc(F)cc2)C2CCN(CCC3OCCCO3)CC2)cc1` [Example 117NLS25, N-{1-[2-(1,3-Dioxan-2-yl)ethyl]piperidin-4-yl}-N-(4-fluorobenzyl)-N′-(4-isobutoxybenzyl)carbamide, tartrate], the Emax came to 94%. In addition, the IC50 under setting [1] was 1.26 nM.

With `CC[C@H]1COC(=O)N1CCCN1CCC(N(Cc2ccc(F)cc2)C(=O)Cc2ccc(OCC(C)C)cc2)CC1` [Example 118AF16-80, N-(4-Fluorobenzyl)-2-(4-isobutoxyphenyl)-N-{1-[3-((S)-4-ethyl-2-oxo-oxazolidin-3-yl)-propyl]piperidin-4-yl}acetamide, oxalate], the Emax amounted to 103%. Also, the IC50 (5HT2A pIC50, Table 5) was 0.794 nM.

With `CC(C)COc1ccc(CC(=O)N(Cc2ccc(F)cc2)C2CCN(CCC3OC(C)CC(C)O3)CC2)cc1` (centres unmarked) [Example 118AF37-88, N-{1-[2-(4,6-Dimethyl-1,3-dioxan-2-yl)ethyl]piperidin-4-yl}-N-(4-fluorobenzyl)-2-(4-isobutoxyphenyl)acetamide, oxalate], the Emax worked out at 105%. In addition, the IC50 under setting [1] was 0.631 nM.

In the case of `O=C(Cc1ccc2occc2c1)N(Cc1ccc(F)cc1)C1CCN(CCC2OCCCO2)CC1` [Example 128NLS22-A, 2-Benzofuran-5-yl-N-{1-[2-(1,3-dioxan-2-yl)ethyl]piperidin-4-yl}-N-(4-fluorobenzyl)acetamide, tartrate], the Emax was determined as 98%. Moreover, the IC50 under setting [1] is 3.16 nM.

In the case of “N-(2-Phenylethyl)-N-(piperidin-4-yl)-4-methoxyphenylmethylacetamide [Example 26HCH80-2]”, the “pIC50 (average)” value (inverse agonist) is listed as 7.78. The “Efficacy (average)” value (percent maximal repression compared to ritanserin) came to 89.

These data come from patent US20080051429A1, “USE OF 4-AMINO-PIPERIDINES FOR TREATING SLEEP DISORDERS” (priority 2006, published 2008).
